This is an account of results in PubChem BioAssay (NCI).

Test systems include SK-MEL-5 melanoma; SF-539 CNS; HL-60(TB) leukemia; DLD-1 colon; K-562 leukemia; IGROV1 ovarian; MALME-3M melanoma; SNB-78 CNS; SK-MEL-2 melanoma.
What all share (assay): NCI anticancer screen, dose series, 48 h

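Growth conditions: 96-well plates. Treatment: test compound, 48 hours, 5 concentrations. Analysis: linear interpolation between bracketing concentrations; unreached endpoints set to highest concentration. Abbreviation: GI50, concentration required for 50% inhibition of growth. At the TGI there is no net growth.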

Regarding `Cc1c(C(Cc2ccccc2N(C)C(=O)/C=C\C(=O)O)c2c[nH]c3ccccc23)c2ccccc2n1C` (stereo not drawn), the TGI with SK-MEL-5 melanoma is 29.8 µM; with SF-539 CNS, 31.8 µM; with HL-60(TB) leukemia, 23.9 µM; with DLD-1 colon, 35.2 µM; in the assay on K-562 leukemia it was 54.7 µM; in the assay on IGROV1 ovarian, 39.8 µM. Further, the TGI in the assay with MALME-3M melanoma was 22.4 µM; with SNB-78 CNS, 53.8 µM.
For `N#CC(C(=O)CCCC(=O)Nc1ccccc1[N+](=O)[O-])c1c(Cl)cccc1Cl` (stereo not drawn), the TGI in the assay on SK-MEL-5 melanoma, in the assay on SF-539 CNS, in the assay with HL-60(TB) leukemia, in the assay with DLD-1 colon, in the assay with K-562 leukemia and with SK-MEL-2 melanoma was more than 100 µM each time. Besides, the TGI in the assay on IGROV1 ovarian, in the assay with MALME-3M melanoma and in the assay on SNB-78 CNS was more than 100 µM each time.
`CC(=O)OC(C)(C)C1CC[C@]2(C)/C=C/C(C)C[C@@H](O)/C=C(\C)CC(O)C12` (stereo partly drawn): the TGI with SK-MEL-5 melanoma, in the assay on SF-539 CNS, in the assay on HL-60(TB) leukemia, in the assay with DLD-1 colon, with K-562 leukemia and in the assay on SK-MEL-2 melanoma was more than 100 µM in each case. The TGI in the assay on IGROV1 ovarian, in the assay on MALME-3M melanoma and with SNB-78 CNS was more than 100 µM in each case.
Regarding `Cc1cc(N(CCC#N)CCC#N)ccc1/C=C(\NC(=O)/C=C/c1ccccc1)C(=O)N=[N+]=[N-]`, the TGI in the assay on SK-MEL-5 melanoma, with SF-539 CNS, with HL-60(TB) leukemia, with DLD-1 colon, with K-562 leukemia and in the assay with SK-MEL-2 melanoma was more than 100 µM each time. The TGI in the assay on IGROV1 ovarian, in the assay on MALME-3M melanoma and with SNB-78 CNS was more than 100 µM each time.
Consider `CC(=O)N1C/C(=C\c2ccccc2)C(=O)/C(=C/c2ccccc2)C1`, for which the TGI in the assay on SK-MEL-5 melanoma was found to be 12.9 µM; with SF-539 CNS, 34.3 µM; with HL-60(TB) leukemia, 4.06 µM; in the assay on DLD-1 colon, 25.8 µM; with K-562 leukemia, 12.8 µM; in the assay with SK-MEL-2 melanoma, 56.6 µM. For the same compound, the TGI with IGROV1 ovarian came to 37.4 µM; in the assay on MALME-3M melanoma it was 40 µM; with SNB-78 CNS it was 53.4 µM.
As to `O=C(O)/C=C/c1ccc(O)c(O)c1`, the TGI in the assay on SK-MEL-5 melanoma, with SF-539 CNS, in the assay with HL-60(TB) leukemia, in the assay on DLD-1 colon, in the assay with K-562 leukemia and in the assay with SK-MEL-2 melanoma was more than 100 µM in each case. Further, the TGI in the assay with IGROV1 ovarian, with MALME-3M melanoma and in the assay with SNB-78 CNS was more than 100 µM in each case.
Take `COc1ccc(C2COc3c(ccc(OC)c3OC)C2=O)cc1OC` (stereo not drawn): the TGI in the assay with SK-MEL-5 melanoma, in the assay with SF-539 CNS, in the assay with HL-60(TB) leukemia, in the assay on DLD-1 colon, in the assay on K-562 leukemia and with IGROV1 ovarian was more than 100 µM each time. In addition, the TGI in the assay on MALME-3M melanoma and in the assay on SNB-78 CNS was more than 100 µM each time.
For `Cc1ccc(S(=O)c2ccccc2[N+](=O)[O-])cc1` (stereo not drawn), the TGI with SK-MEL-5 melanoma, in the assay with SF-539 CNS, with HL-60(TB) leukemia, with DLD-1 colon, with K-562 leukemia and in the assay on SK-MEL-2 melanoma was more than 100 µM throughout. The TGI in the assay on IGROV1 ovarian, with MALME-3M melanoma and with SNB-78 CNS was more than 100 µM in each case.
With `NC1=C(O)c2cccc3cccc(c23)C1=O`, the TGI in the assay on SK-MEL-5 melanoma, in the assay with SF-539 CNS, with HL-60(TB) leukemia, with DLD-1 colon, with K-562 leukemia and in the assay with SK-MEL-2 melanoma was more than 100 µM each time. For the same compound, the TGI with IGROV1 ovarian, in the assay with MALME-3M melanoma and in the assay with SNB-78 CNS was more than 100 µM throughout.
Regarding `CN(C)CC1CC/C(=C\c2ccc(Cl)c(Cl)c2)C1=O` (stereo not drawn), the TGI is more than 72.9 µM in the assay with SK-MEL-5 melanoma; more than 55.7 µM in the assay with SF-539 CNS; 4.68 µM with HL-60(TB) leukemia; 50.1 µM in the assay with DLD-1 colon; more than 27.1 µM in the assay on K-562 leukemia; more than 62.9 µM in the assay on SK-MEL-2 melanoma. Further, the TGI in the assay on IGROV1 ovarian is more than 69.6 µM; in the assay with MALME-3M melanoma it was more than 100 µM; with SNB-78 CNS, more than 78.8 µM.
Consider `COc1ccc(C(=O)C(C(=O)CCC(=O)Nc2ccc(Cl)c(Cl)c2)c2ccc(OC)cc2)cc1` (stereo not drawn), for which the TGI in the assay on SK-MEL-5 melanoma, with SF-539 CNS, in the assay on HL-60(TB) leukemia, in the assay with DLD-1 colon, in the assay with K-562 leukemia and in the assay with SK-MEL-2 melanoma was more than 100 µM each time. Besides, the TGI in the assay with IGROV1 ovarian, in the assay on MALME-3M melanoma and in the assay with SNB-78 CNS was more than 100 µM each time.
In the case of `C/C(CN1C(=O)c2ccccc2C1=O)=N\NS(=O)(=O)c1ccc2ccccc2c1`, the TGI with SK-MEL-5 melanoma, in the assay on SF-539 CNS, in the assay on HL-60(TB) leukemia, in the assay with DLD-1 colon, with K-562 leukemia and with SK-MEL-2 melanoma was more than 100 µM each time. For the same compound, the TGI with IGROV1 ovarian, in the assay with MALME-3M melanoma and with SNB-78 CNS was more than 100 µM in each case.
As for `O=C(/C=C/c1ccccc1)NC1C=Nc2ccc([N+](=O)[O-])cc2NC1=O` (stereo not drawn), the TGI in the assay on SK-MEL-5 melanoma, in the assay on SF-539 CNS, in the assay on HL-60(TB) leukemia, in the assay with DLD-1 colon, in the assay on K-562 leukemia and in the assay with SK-MEL-2 melanoma was more than 100 µM in each case. Besides, the TGI in the assay with IGROV1 ovarian, in the assay with MALME-3M melanoma and with SNB-78 CNS was more than 100 µM each time.
For `CN(C)CCC(N)(P(=O)([O-])[O-])P(=O)([O-])[O-].N.N.[Pt+2]`, the GI50 with SK-MEL-5 melanoma, with SF-539 CNS, in the assay with HL-60(TB) leukemia, in the assay with DLD-1 colon, in the assay on K-562 leukemia and with SK-MEL-2 melanoma was more than 100 µM throughout. The GI50 in the assay on IGROV1 ovarian, in the assay on MALME-3M melanoma and with SNB-78 CNS was more than 100 µM throughout. Moreover, the TGI in the assay with SK-MEL-5 melanoma, in the assay on SF-539 CNS, with HL-60(TB) leukemia, in the assay on DLD-1 colon, with K-562 leukemia and in the assay on SK-MEL-2 melanoma was more than 100 µM each time. Besides, the TGI in the assay on IGROV1 ovarian, with MALME-3M melanoma and in the assay with SNB-78 CNS was more than 100 µM in each case.
